Publication PMC9631887 (ACS Omega, 2022)

Legend:
PAMPA-GIT = settings: for classification / experimental fraction absorption: PAMPA-GIT; for classification: fraction absorption classification; for Papp at 8 h, 500 μM: PAMPA
[1] = QC standards; ref Zhu et al.[29]; cited from earlier work

Row | classification (PAMPA-GIT) | Papp at 8 h, 500 μM (PAMPA-GIT) | experimental fraction absorption (PAMPA-GIT) | Structure (SMILES) | classification (PAMPA-BBB) | literature fraction absorption [1]
1 | low (Low, 0–29% Fa) | – | – | CC(C)NCC(O)COc1ccc(CC(N)=O)cc1 (stereo not shown) [atenolol] | – | –
2 | – | – | – | Cn1c(=O)c2c(ncn2C)n(C)c1=O [caffeine] | BBB– (Pe values <1.57 were classified as nonpermeable (BBB−)) | –
3 | – | – | – | CO/N=C(\C(=O)N[C@@H]1C(=O)N2C(C(=O)O)=C(CSc3nc(=O)c(=O)[nH]n3C)CS[C@H]12)c1csc(N)n1 [ceftriaxone] | – | 1%
4 | high (High, 70–100% Fa) | 279 nm/s | 100.00% | O=c1ccc2ccccc2o1 [coumarin] | – | –
5 | high (High, 70–100% Fa) | 140 nm/s | 100.00% | O=C(O)Cc1ccccc1Nc1c(Cl)cccc1Cl [diclofenac] | – | 100%
6 | – | – | – | CCn1cc(C(=O)O)c(=O)c2cc(F)c(N3CCNCC3)nc21 [enoxacin] | BBB– (Pe values <1.57 were classified as nonpermeable (BBB−)) | –
7 | – | – | 100.00% | C[C@]12CCC(=O)C=C1CC[C@@H]1[C@@H]2[C@@H](O)C[C@@]2(C)[C@H]1CC[C@]2(O)C(=O)CO [hydrocortisone] | – | –
8 | intermediate (Intermediate, 30–69% Fa) | – | 51.39% | CCn1cc(C(=O)O)c(=O)c2cc(F)c(N3CCNCC3)cc21 [norfloxacin] | – | –
9 | intermediate (Intermediate, 30–69% Fa) | – | 49.75% | CNC(=C[N+](=O)[O-])NCCSCc1ccc(CN(C)C)o1 [ranitidine] | – | –
